Results published in US12180159B2, “Activators of the unfolded protein response” (The Board of Trustees of the University of Illinois, priority 2018, dated 2024).

Columns and labels:
MCF-7 cells = assay: Alamar blue fluorescence 24-hour cell death assay, MCF-7; format: cell-based, human; conditions: MCF7, 24 hour incubation, Alamar Blue (FIG. 4)
Description: ALAMAR BLUE/RAPTINAL ASSAY: Live cells maintain a reducing environment. The non-fluorescent cell permeable ingredient of Alamar Blue® (resazurin) is taken up by cells. In living cells, it is reduced to the fluorescent compound resorufin. Using a standard curve of cell number versus fluorescence the number of live cells in a test sample can be determined. At high concentrations raptinal kills 100% of cells. The vehicle in which the test compound is dissolved is not toxic. Thus, after subtracting the blank for medium alone, the fluorescence reading for vehicle corresponds to 100% viable cells and the signal for raptinal corresponds to 0% viable cells. […]
ALAMAR BLUE RAPTINAL ASSAYS: Cells were plated at 4,000-10,000 cells/well (96 well plate), usually in 50 μl of medium. […] After 24 hours Alamar Blue reagent was added and fluorescence in the wells was read (BMG PheraStar or Molecular Devices Spectra Max M3 Microplate Reader). % relative death was determined by setting the reading for raptinal-treated cells to 100% dead cells and the reading for vehicle-treated cells to 0% dead cells.
Preparative gram-scale chiral separation of (±)-1 yields enantiopure (R)-1 and (S)-1 with opposite optical rotations (Scheme 5). […] Values were obtained after 24-hour incubation utilizing Alamar blue fluorescence assay normalized to live and death controls (vehicle and raptinal treated). […]

[1] = system: sp-XBP1 mRNA in T47D-luciferase cells; assay: Induction of spliced XBP-1 mRNA (qRT-PCR); format: cell-based, human; conditions: 100 nM
Description: ERα positive T47D-luciferase, human breast cancer cells, were maintained for the indicated times in vehicle (Ctl, Control), 100 nM BHPI or 100 nM (−)-105. At the indicated times RNA was isolated and levels of sp-XBP1 mRNA quantitated by qRT-PCR. (n=3±SEM). […] Increased sp-XBP1 mRNA is a widely used marker for unfolded protein response (UPR) activation.

[2] = system: Y537S tumors (TYS cell line); assay: TYS-luc orthotopic tumor model, SERK-F6 i.p. and oral; format: in vivo, mouse
Source text: FIG. 41. SERK-F6 eradicates mutant ERα primary and metastatic breast cancer. a-c, TYS-luc. orthotopic tumors were established in NSG ovariectomized mice (no E2 pellet, 60 days to establish) and dosed daily as indicated (n=5-6). b, representative examples of bioluminescence images of SERK-F6 treated mice (7 days). d,e, TDG-luc. orthotopic tumors were established in NSG ovariectomized mice (no E2 pellet, 120 days to establish) and dosed daily as indicated (n=4-5). e, Bioluminescence image of SERK-F6 treated mouse with TDG-luc. tumor burden after 7 days. f, MYS-luc. orthotopic tumors were established in NSG ovariectomized mice (no E2 pellet, 45 days to establish) and dosed daily as indicated (n=4-5). g, MDG-luc. orthotopic tumors were established in NSG ovariectomized mice (no E2 pellet, 45 days to establish) and dosed daily as indicated (n=4-5). h, Metastatic model with MDG-luc. cells injected into the tail-vein of NSG ovariectomized mice (no E2 pellet, 1.5 months to establish) and mice were dosed daily as indicated (n=4-5).
SERK-F6 treatment was again tolerated (FIG. 42E) at higher doses and enough to eradicate tumors (FIG. 42F).

MDA-MB-231 cells = assay: Cell death of MDA-MB-231 cells (annexin V-FITC / PI flow cytometry); format: cell-based, human; conditions: 24 hours
Description: (§1) FIG. 36. Discovery of SERK-F6 (also known as, C(−)-105, (−)-105, (R)-105, (−)-1, or (R)-1), a compound that kills ERα-positive cancer cells. a, Chemical structures of BHPI and racemic compound 1 (i.e. (±)-1), and their cytotoxic activity on T47D breast cancer cells after 24-hour incubations with concentrations as indicated in nM. Cells were stained with annexin V-FITC and PI dyes prior to analysis via flow cytometry. […] Cells were incubated with SERK-F6 or positive control, Raptinal, for 24 hours and then stained with annexin V-FITC and PI dyes and analyzed via flow cytometry. Error bars represent S.E.M of 3 independent replicates. c, IC50 values of SERK-F6 after 24-hour incubation against a panel of cancer cell lines grouped by their reported ERα status. Cell viability was measured by Alamar blue fluorescence and set relative to a vehicle control and a quantitative dead control treated with Raptinal. Error bars represent S.E.M of 3 independent experiments. d, Crystal violet staining of T47D cells after 24-hour incubations with compounds and concentrations as indicated. […] Cell number was determined by MTS.
Through a medicinal chemistry campaign, (±)-1 was discovered to show an unexpected cytotoxic phenotype (FIG. 36A). […] The dose dependent activity of SERK-F6 was determined against a panel of cancer cell lines (FIG. 36C and FIG. 37A) for ERα.

[3] = system: MCF-7 ERα Y537S-luciferase cells; assay: Long-term cell culture experiment, MCF-7Y537S cells; format: cell-based, human; conditions: conditions as FIG. 15
ERα cell lines = assay: 24-hour crystal violet assay and long-term cell culturing; format: cell-based, human; conditions: 24-hour crystal violet assay and long-term culture
Description: as §1, with “indicated. Image is representative of 2 independent experiments. e,f, Long-term cell culture experiment with T47D, TDG, and TYS cells.” for “indicated.”, “MTS. […]” for “MTS.”
An important aspect for cytotoxic therapy is the ability to quantitatively kill a cell population. […]

With `O=C1Nc2c(C(F)(F)F)cccc2C1(c1ccc(O)cc1)c1ccc(OC(F)(F)F)cc1` (single isomer, unassigned; (-)) [(−)-105, 3-(4-hydroxyphenyl)-3-(4-(trifluoromethoxy)phenyl)-7-(trifluoromethyl)indolin-2-one] the “ability to kill compared with BHPI and 01-15” value (MCF-7 cells) was “superior to BHPI and 01-15”, the “UPR activation, induction of sp-XBP1 mRNA” value [1] was “much stronger UPR hyper-activator and inducer of sp-XBP1 than BHPI” and the “tumor regrowth at sub-therapeutic dose” value ([2]; 10 mg/kg oral) was “tumors did regrow”. The “tumor regrowth upon treatment cessation” value ([2]; after treatment cessation) was “tumors did not regrow”, the “effect on Y537S tumors” value ([2]; dose-dependent, i.p. and oral administration) was “eradicates Y537S tumors” and the “effects in ERα negative MDA-MB-231 cells” value (MDA-MB-231 cells) was “minimal effects”. The “effect on MCF-7Y537S cells in long-term experiments” value [3] was “eradicates” and the “quantitative killing of ERα cell lines” value (ERα cell lines) was “quantitatively kills”.
